Laboratory results as given in patent US9365533B2, “Coumarin derivative” (NIPPON ZOKI PHARMACEUTICAL CO., LTD., priority 2012, dated 2016).

What was measured:
[1] = system: cartilage pieces of bovine metacarpophalangeal joint; assay: Suppressive action to cartilage destruction: release of sGAG induced by IL-1α from cartilage pieces; type: cell-based; settings: Bos taurus, 96 h; 25 μmol/L test substance, 2 h pretreatment; human recombinant IL-1α 3 ng/mL; 4 days at 37° C.; read-out: sGAG Releasing Suppressive Rate (%)
Description: Evaluation of Suppressive Action to Cartilage Destruction [Release of sGAG Induced by Interleukin-1α (IL-1α)]
(1) Incubation of Cartilage Pieces
Each four cartilage pieces of bovine metacarpophalangeal joint were placed in each well of a 48-well plate and pretreated for 2 hours with a basal medium [D-MEM (Dulbecco's Modified Eagle Medium) containing 2 mmol/L of glutamine, 25 mmol/L of Hepes, 100 μg/mL of streptomycin, 100 IU/mL of penicillin and 5.6 μg/mL of amphotericin B] containing 25 μmol/L of a test substance. Human recombinant IL-1α (3 ng/mL) was added thereto followed by incubating at 37° C. for 4 days in a CO2 incubator set at 5 vol % of CO2. Culture supernatant and cartilage pieces were recovered and stored by freezing until the measurement for each of them.
(2) Measurement of the Amount of sGAG and Calculation of the Suppressive Rate for the Release of sGAG
The recovered cartilage pieces were treated with a papain solution [containing 1 mg/mL of papain, 100 mmol/L of sodium phosphate (pH 6.5), 5 mmol/L of L-cysteine and 5 mmol/L of disodium ethylenediaminetetraacetate (EDTA)] at 65° C. for about 16 hours to solubilize. Amount of sGAG in the resulting extract was measured using an sGAG Alcian Blue Binding Kit (Wieslab AB) which is a quantitative kit to which a Alcian blue staining protocol is applied. sGAG in the culture supernatant after the incubation was measured without subjecting to a papain treatment. Each releasing rate of sGAG was determined by the following formula to calculate the suppressive rate for the release of sGAG. Releasing rate (%) of sGAG={(Total sGAG amount in the culture supernatant)/[(Total sGAG amount in the culture supernatant)+(Total sGAG amount in the cartilage pieces)]}×100 Suppressive rate (%) for release of sGAG={[Releasing rate of sGAG (IL-1α stimulation)−Releasing rate of sGAG (Test substance)]/[Releasing rate of sGAG (IL-1α stimulation)−Releasing rate of sGAG (Non-stimulation)]}×100

HFLS-OA cells = assay: Suppressive action to TNF-α-induced proliferation of synovial cells (HFLS-OA), BrdU ELISA; type: cell-based; settings: 200 μmol/L test substance, human recombinant TNF-α 10 ng/mL, 5 days, BrdU incorporation increase by TNF-α = 100%; for activity at 200 µM: Synovial cell, 120 h, read-out: Synovial Cell Proliferation Rate (%)
Description: Evaluation of Suppressive Action to Cell Proliferation of Synovial Cells (HFLS-OA) Derived from Tissues of Human Osteoarthritis
(1) Incubation of HFLS-OA Cells
HFLS-OA cells were sown onto a 96-well plate so as to make them 10^4 cells/well/100 μL in a D-MEM containing 2 vol % of fetal bovine serum (FBS) and incubated for 24 hours. A test substance (200 μmol/L) and human recombinant TNF-α (10 ng/mL) were added thereto followed by incubating for 5 days.
(2) Measurement of Action to HFLS-OA Cell Proliferation
A kit [Cell Proliferation ELISA, BrdU (colorimetric) (Roche Diagnostics)] was used and measurement was conducted according to the protocol attached to the kit. HFLS-OA cells were incubated for 3 days and 10 μL of 5-bromo-2′-deoxyuridine (BrdU) dissolved in a phosphate buffered saline (PBS) (100 μmol/L, pH 7.4) was added to each well followed by incubating for 48 hours more. After the culture supernatant was removed from each well, 200 μL/well of an immobilization/denaturation solution was added thereto and the mixture was allowed to stand for 30 minutes whereby immobilization of the cells and denaturation of DNA were conducted. After the immobilization/denaturation solution was completely removed, 100 μL of a peroxidase-labeled anti-BrdU antibody solution was added thereto and the mixture was made to react at room temperature for 90 minutes. After washing with PBS, 100 μL of a substrate liquid (tetramethylbenzidine) was added to each well and the absorbance was measured. A cell proliferation rate upon addition of each test substance was calculated where an increase in incorporation of BrdU upon addition of TNF-α was defined as 100% of cell proliferation rate.

SMILES	inhibition at 25 µM [1] [%]	activity at 200 µM (HFLS-OA cells) [%]	Synovial Cell Proliferation Rate (%) (HFLS-OA cells)
COc1ccc(S(=O)(=O)Nc2cc3cccc(OS(=O)(=O)c4ccc(OC)cc4)c3oc2=O)cc1 [Compound 1, 3-[(4-Methoxyphenyl)sulfonylamino]-2-oxochromen-8-yl 4-methoxybenzenesulfonate]	93	-39.1	
COc1cccc(S(=O)(=O)Nc2cc3cccc(OS(=O)(=O)c4cccc(OC)c4)c3oc2=O)c1 [Compound 2, 3-[(3-Methoxyphenyl)sulfonylamino]-2-oxochromen-8-yl 3-methoxybenzenesulfonate]		-52.2	
COc1ccccc1S(=O)(=O)Nc1cc2cccc(OS(=O)(=O)c3ccccc3OC)c2oc1=O [Compound 3, 3-[(2-Methoxyphenyl)sulfonylamino]-2-oxochromen-8-yl 2-methoxybenzenesulfonate]		-65.1	
Cc1ccc(S(=O)(=O)Nc2cc3cccc(OS(=O)(=O)c4ccc(C)cc4)c3oc2=O)cc1 [Compound 4, 2-Oxo-3-(p-tolylsulfonylamino)chromen-8-yl 4-methyl-benzenesulfonate]		-88.1	
Cc1cccc(S(=O)(=O)Nc2cc3cccc(OS(=O)(=O)c4cccc(C)c4)c3oc2=O)c1 [Compound 5, 3-(m-Tolylsulfonylamino)-2-oxochromen-8-yl 3-methyl-benzenesulfonate]		-84.9	
Cc1ccccc1S(=O)(=O)Nc1cc2cccc(OS(=O)(=O)c3ccccc3C)c2oc1=O [Compound 6, 3-(o-Tolylsulfonylamino)-2-oxochromen-8-yl 2-methyl-benzenesulfonate]		-77.4	
O=c1oc2c(OS(=O)(=O)c3ccc(Cl)cc3)cccc2cc1NS(=O)(=O)c1ccc(Cl)cc1 [Compound 7, 3-[(4-Chlorophenyl)sulfonylamino]-2-oxochromen-8-yl 4-chlorobenzenesulfonate]		-92.5	
O=c1oc2c(OS(=O)(=O)c3cccc(Cl)c3)cccc2cc1NS(=O)(=O)c1cccc(Cl)c1 [Compound 8, 3-[(3-Chlorophenyl)sulfonylamino]-2-oxochromen-8-yl 3-chlorobenzenesulfonate]		-94.4	
O=c1oc2c(OS(=O)(=O)c3ccccc3Cl)cccc2cc1NS(=O)(=O)c1ccccc1Cl [Compound 9, 3-[(2-Chlorophenyl)sulfonylamino]-2-oxochromen-8-yl 2-chlorobenzenesulfonate]		-88.8	
O=c1oc2c(OS(=O)(=O)c3ccc(F)cc3)cccc2cc1NS(=O)(=O)c1ccc(F)cc1 [Compound 10, 3-[(4-Fluorophenyl)sulfonylamino]-2-oxochromen-8-yl 4-fluorobenzenesulfonate]		-34.9	
O=c1oc2c(OS(=O)(=O)c3cccc(F)c3)cccc2cc1NS(=O)(=O)c1cccc(F)c1 [Compound 11, 3-[(3-Fluorophenyl)sulfonylamino]-2-oxochromen-8-yl 3-fluorobenzenesulfonate]		-90.6	
O=c1oc2c(OS(=O)(=O)c3ccccc3F)cccc2cc1NS(=O)(=O)c1ccccc1F [Compound 12, 3-[(2-Fluorophenyl)sulfonylamino]-2-oxochromen-8-yl 2-fluorobenzenesulfonate]		-91.8	
N#Cc1ccc(S(=O)(=O)Nc2cc3cccc(OS(=O)(=O)c4ccc(C#N)cc4)c3oc2=O)cc1 [Compound 13, 3-[(4-Cyanophenyl)sulfonylamino]-2-oxochromen-8-yl 4-cyanobenzenesulfonate]	44	-54.1	
N#Cc1cccc(S(=O)(=O)Nc2cc3cccc(OS(=O)(=O)c4cccc(C#N)c4)c3oc2=O)c1 [Compound 14, 3-[(3-Cyanophenyl)sulfonylamino]-2-oxochromen-8-yl 3-cyanobenzenesulfonate]	66	-60.3	
N#Cc1ccccc1S(=O)(=O)Nc1cc2cccc(OS(=O)(=O)c3ccccc3C#N)c2oc1=O [Compound 15, 3-[(2-Cyanophenyl)sulfonylamino]-2-oxochromen-8-yl 2-cyanobenzenesulfonate]		-3.3	
O=c1oc2c(OS(=O)(=O)c3ccc([N+](=O)[O-])cc3)cccc2cc1NS(=O)(=O)c1ccc([N+](=O)[O-])cc1 [Compound 16, 3-[(4-Nitrophenyl)sulfonylamino]-2-oxochromen-8-yl 4-nitrobenzenesulfonate]	112	-19.9	
O=c1oc2c(OS(=O)(=O)c3cccc([N+](=O)[O-])c3)cccc2cc1NS(=O)(=O)c1cccc([N+](=O)[O-])c1 [Compound 17, 3-[(3-Nitrophenyl)sulfonylamino]-2-oxochromen-8-yl 3-nitrobenzenesulfonate]	156	-24.9	
O=c1oc2c(OS(=O)(=O)c3ccccc3[N+](=O)[O-])cccc2cc1NS(=O)(=O)c1ccccc1[N+](=O)[O-] [Compound 18, 3-[(2-Nitrophenyl)sulfonylamino]-2-oxochromen-8-yl 2-nitrobenzenesulfonate]	81	-23.8	
N#Cc1ccc(S(=O)(=O)Oc2cccc3cc(NS(=O)(=O)c4ccccc4)c(=O)oc23)cc1 [Compound 20, 3-(Benzenesulfonylamino)-2-oxochromen-8-yl 4-cyanobenzenesulfonate]	35	-42.1	
N#Cc1ccc(S(=O)(=O)Nc2cc3cccc(OS(=O)(=O)c4ccccc4)c3oc2=O)cc1 [Compound 21, 3-[(4-Cyanophenyl)sulfonylamino]-2-oxochromen-8-yl benzenesulfonate]	69	-41.2	
N#Cc1cccc(S(=O)(=O)Nc2cc3cccc(OS(=O)(=O)c4ccccc4)c3oc2=O)c1 [Compound 22, 3-[(3-Cyanophenyl)sulfonylamino]-2-oxochromen-8-yl benzenesulfonate]	92	-38.4	
O=c1oc2c(OS(=O)(=O)c3ccccc3)cccc2cc1NS(=O)(=O)c1ccc([N+](=O)[O-])cc1 [Compound 23, 3-[(4-Nitrophenyl)sulfonylamino]-2-oxochromen-8-yl benzenesulfonate]	103	-39	
O=c1oc2c(OS(=O)(=O)c3ccccc3)cccc2cc1NS(=O)(=O)c1cccc([N+](=O)[O-])c1 [Compound 24, 3-[(3-Nitrophenyl)sulfonylamino]-2-oxochromen-8-yl benzenesulfonate]	90	-40	
O=c1oc2c(OS(=O)(=O)c3ccccc3)cccc2cc1NS(=O)(=O)c1cccc(F)c1 [Compound 25, 3-[(3-Fluorophenyl)sulfonylamino]-2-oxochromen-8-yl benzenesulfonate]	77	-40.9	
O=c1oc2c(OS(=O)(=O)c3ccccc3)cccc2cc1NS(=O)(=O)c1ccc(F)c(F)c1 [Compound 26, 3-[(3,4-Difluorophenyl)sulfonylamino]-2-oxochromen-8-yl benzenesulfonate]	97	-38.4	
CS(=O)(=O)Nc1cc2cccc(OS(=O)(=O)c3cccc(Br)c3)c2oc1=O [Compound 39, 3-(Methanesulfonamide)-2-oxochromen-8-yl 3-bromobenzenesulfonate]			−43.0
CS(=O)(=O)Nc1cc2cccc(OS(=O)(=O)c3ccccc3)c2oc1=O [Compound 40, 3-(Methanesulfonamide)-2-oxochromen-8-yl benzene-sulfonate]			−40.5
